Literature values as cited in patent US10184942B2, “Natriuretic peptide receptor as a biomarker for diagnosis and prognosis of cancer” (UNIVERSITY OF SOUTH FLORIDA, priority 2011, dated 2019).

Test system: PCa cells
Conditions: in vitro and in mice

Molecule | proliferation of PCa cells
CC[C@H](C)[C@@H]1NC(=O)[C@H](CCCNC(=N)N)NC(=O)[C@H](CC(=O)O)NC(=O)[C@H](CCSC)NC(=O)[C@H](CCCNC(=N)N)NC(=O)CNC(=O)CNC(=O)[C@H](Cc2ccccc2)NC(=O)[C@@H](NC(=O)[C@H](CO)NC(=O)[C@H](CO)NC(=O)[C@H](CCCNC(=N)N)NC(=O)[C@H](CCCNC(=N)N)NC(=O)[C@H](CC(C)C)NC(=O)[C@@H](N)CO)CSSC[C@@H](C(=O)N[C@@H](CC(N)=O)C(=O)N[C@@H](CO)C(=O)N[C@@H](Cc2ccccc2)C(=O)N[C@@H](CCCNC(=N)N)C(=O)N[C@@H](Cc2ccc(O)cc2)C(=O)O)NC(=O)CNC(=O)[C@H](CC(C)C)NC(=O)CNC(=O)[C@H](CO)NC(=O)[C@H](CCC(N)=O)NC(=O)[C@H](C)NC(=O)CNC1=O [ANP, atrial natriuretic peptide] | inhibit the proliferation
VD: vessel dilator, an ANP prohormone peptide (EVVPPQVLSEPNEEAGAALSPLPEVPPWTGEVSPAQR; Vessel dilator; UniProt P01160 56-92, looked up) | inhibit the proliferation
